# Laboratory results published in the supplement of paper PMC4862054.
# Legend:
# Conditions in all cases: incubation time: 72 h
# [1] = test system: HCC1143; experiment: normalised response (% of control), CellTox Green; higher = less cell death (100 = DMSO, 0 = benzethonium chloride kill control)
# Procedure, shortened: (§1)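 Values are normalised signals, each belonging to one concentration of the series. Breast cancer cells (20 µl suspension) were seeded into 384-well plates with compound at 5 concentrations in 10-fold steps over a compound-specific 10,000-fold range and incubated 72 h. Readouts were CellTox Green fluorescence (485/520 nm), then CellTiter-Glo luminescence after 10 min at room temperature, with each plate set to 0.1 % DMSO as 100 and a positive kill control as 0.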
# [2] = test system: DU-4475; experiment: as above
# Procedure, shortened: as §1
# [3] = test system: BT-474; experiment: as above
# Procedure, shortened: as §1
# [4] = test system: MDA-MB-436; experiment: as above
# Procedure, shortened: as §1
# [5] = test system: CAL-148; experiment: as above
# Procedure, shortened: as §1
# [6] = test system: MCF-10A; experiment: as above
# Procedure, shortened: as §1
# [7] = test system: MDA-MB-453; experiment: as above
# Procedure, shortened: as §1
# [8] = test system: CAL-85-1; experiment: as above
# Procedure, shortened: as §1
# [9] = test system: MDA-MB-231; experiment: as above
# Procedure, shortened: as §1
# [10] = test system: MDA-MB-468; experiment: as above
# Procedure, shortened: as §1
# [11] = test system: BT-549; experiment: as above
# Procedure, shortened: as §1
# [12] = test system: Hs578T; experiment: as above
# Procedure, shortened: as §1
# [13] = test system: CAL-120; experiment: as above
# Procedure, shortened: as §1
# [14] = test system: HCC1599; experiment: as above
# Procedure, shortened: as §1
# [15] = test system: HDQ-P1; experiment: as above
# Procedure, shortened: as §1
# [16] = test system: HCC1937; experiment: as above
# Procedure, shortened: as §1
# [17] = test system: CAL-51; experiment: as above
# Procedure, shortened: as §1
# [18] = test system: MFM-223; experiment: as above
# Procedure, shortened: as §1
# [19] = test system: HCC1143; experiment: normalised response (% of control), CellTiter-Glo; higher = more viable cells (100 = DMSO, 0 = benzethonium chloride kill control)
# Experimental: (§2)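 DSRT, 72 h incubation, CellTox Green / CellTiter-Glo readout. Signal is normalised to DMSO and benzethonium chloride controls. Value is the normalised response at the highest dose.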
# [20] = test system: DU-4475; experiment: as above
# Experimental: as §2
# [21] = test system: BT-474; experiment: as above
# Experimental: as §2
# [22] = test system: MDA-MB-436; experiment: as above
# Experimental: as §2
# [23] = test system: CAL-148; experiment: as above
# Experimental: as §2
# [24] = test system: MCF-10A; experiment: as above
# Experimental: as §2
# [25] = test system: MDA-MB-453; experiment: as above
# Experimental: as §2
# [26] = test system: CAL-85-1; experiment: as above
# Experimental: as §2
# [27] = test system: MDA-MB-231; experiment: as above
# Experimental: as §2
# [28] = test system: MDA-MB-468; experiment: as above
# Experimental: as §2
# [29] = test system: BT-549; experiment: as above
# Experimental: as §2
# [30] = test system: SK-BR-3; experiment: as above
# Experimental: as §2
# [31] = test system: Hs578T; experiment: as above
# Experimental: as §2
# [32] = test system: CAL-120; experiment: as above
# Experimental: as §2
# [33] = test system: HCC1599; experiment: as above
# Experimental: as §2
# [34] = test system: HDQ-P1; experiment: as above
# Experimental: as §2
# [35] = test system: HCC1937; experiment: as above
# Experimental: as §2
# [36] = test system: CAL-51; experiment: as above
# Experimental: as §2
# [37] = test system: MFM-223; experiment: as above
# Experimental: as §2
SMILES,normalised response [1],normalised response [2],normalised response [3],normalised response [4],normalised response [5],normalised response [6],normalised response [7],normalised response [8],normalised response [9],normalised response [10],normalised response [11],normalised response [12],normalised response [13],normalised response [14],normalised response [15],normalised response [16],normalised response [17],normalised response [18],normalised response [19],normalised response [20],normalised response [21],normalised response [22],normalised response [23],normalised response [24],normalised response [25],normalised response [26],normalised response [27],normalised response [28],normalised response [29],normalised response [30],normalised response [31],normalised response [32],normalised response [33],normalised response [34],normalised response [35],normalised response [36],normalised response [37]
CN1CCc2c(c3ccccc3n2Cc2ccc(C(=O)NO)cc2)C1 [Tubastatin A] (10000 nM),55.3%,93.7%,86.9%,79.8%,80.1%,99.6%,91.3%,80.3%,49.3%,41.7%,87.1%,122%,99.3%,90.1%,106%,61.3%,-14.9%,84.2%,47.1%,79.9%,75.4%,72.3%,77.3%,98.5%,57.4%,72.5%,72%,66.4%,75%,42.2%,87.9%,84.1%,85.3%,73.3%,70.1%,39.3%,87%
CCc1c(C(=O)C(N)=O)c2c(OCC(=O)O)cccc2n1Cc1ccccc1 [Varespladib] (10000 nM),103%,97.5%,99.6%,105%,98.3%,110%,101%,93.6%,102%,109%,103%,121%,104%,102%,97.1%,72.7%,108%,90%,101%,91.3%,99.2%,101%,109%,100%,102%,104%,95.7%,97.7%,99.8%,103%,99.3%,115%,95.1%,98.8%,96.7%,97.3%,105%
